How the values were obtained:
Assay in all cases: Test D controlled growth environment herbicide test, pre- and postemergence
Type in all cases: in vivo
[1] = system: blackgrass (Alopecurus myosuroides)
How it was run: (§1)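 Species sown in silt loam and sprayed preemergence, or grown in peat-based medium to 2–18 cm (1- to 4-leaf stage) and sprayed postemergence, with compounds in non-phytotoxic solvent plus surfactant. Visual injury scored versus controls after 14–21 d in a controlled environment, 0 (no effect) to 100 (complete control).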

[2] = system: bromegrass, downy (downy bromegrass, Bromus tectorum)
How it was run: as §1

[3] = system: buckwheat, wild (wild buckwheat, Polygonum convolvulus)
How it was run: as §1

[4] = system: chamomile (scentless chamomile, Matricaria inodora)
How it was run: as §1

[5] = system: deadnettle (henbit deadnettle, Lamium amplexicaule)
How it was run: as §1

[6] = system: foxtail, green (green foxtail, Setaria viridis)
How it was run: as §1

[7] = system: galium (catchweed bedstraw, Galium aparine)
How it was run: as §1

[8] = system: kochia (Kochia scoparia)
How it was run: as §1

[9] = system: mustard, wild (wild mustard, Sinapis arvensis)
How it was run: as §1

[10] = system: oilseed rape (Brassica napus)
How it was run: as §1

[11] = system: pigweed (Amaranthus retroflexus)
How it was run: as §1

[12] = system: ryegrass, Italian (Italian ryegrass, Lolium multiflorum)
How it was run: as §1

[13] = system: speedwell (bird's-eye speedwell, Veronica persica)
How it was run: as §1

[14] = system: windgrass (Apera spica-venti)
How it was run: as §1

[15] = Postemergence, 31 g ai/ha, scale 0 to 100 (0 no effect, 100 complete control)
[16] = Postemergence, 125 g ai/ha, visual rating on scale 0 (no effect) to 100 (complete control), 14 to 21 d
[17] = Postemergence, 250 g ai/ha, scale 0 to 100 (0 no effect, 100 complete control)
[18] = Preemergence, 62 g ai/ha, scale 0 to 100 (0 no effect, 100 complete control)
[19] = Preemergence, 125 g ai/ha, scale 0 to 100 (0 no effect, 100 complete control)
[20] = Preemergence, 250 g ai/ha, scale 0 to 100, 0 no effect, 100 complete control
[21] = postemergence, 62 g ai/ha, scale 0 to 100, 0 no effect, 100 complete control

In the case of `Cc1ccc2sc(C)c(-c3c(OC(=O)OC(C)C)c(C)nn(C)c3=O)c2c1` [Compound 66], the “Blackgrass plant response rating” value [1, 15] is reported as 65, the “Plant response rating, Blackgrass” value [1, 16] is reported as 75 and the “Plant response rating, Blackgrass” value [1, 17] is reported as 75. For the same compound, the “Plant response rating (scale of 0 to 100), Blackgrass” value ([1]; Preemergence, 31 g ai/ha) was 25, the “Plant response rating, Blackgrass” value [1, 18] was 70 and the “Plant response rating, Blackgrass” value [1, 19] was 75. For the same compound, the “Plant response rating, Blackgrass” value [1, 20] was 80, the “Plant response rating, Blackgrass” value [1, 21] was 70 and the “Bromegrass, Downy plant response rating” value [2, 15] was 50. The “Plant response rating, Bromegrass, Downy” value [2, 16] was 65, the “Plant response rating, Bromegrass, Downy” value [2, 17] was 70 and the “Plant response rating (scale of 0 to 100), Bromegrass, Downy” value ([2]; Preemergence, 31 g ai/ha) was 15. The “Plant response rating, Bromegrass, Downy” value [2, 18] was 60, the “Plant response rating, Bromegrass, Downy” value [2, 19] was 80 and the “Plant response rating, Bromegrass, Downy” value [2, 20] was 85. For the same compound, the “Plant response rating, Bromegrass, Downy” value [2, 21] was 60, the “Buckwheat, Wild plant response rating” value [3, 15] was 95 and the “Plant response rating, Buckwheat, Wild” value [3, 16] was 100. For the same compound, the “Plant response rating, Buckwheat, Wild” value [3, 17] was 100, the “Plant response rating (scale of 0 to 100), Buckwheat, Wild” value ([3]; Preemergence, 31 g ai/ha) was 0 and the “Plant response rating, Buckwheat, Wild” value [3, 18] was 0. The “Plant response rating, Buckwheat, Wild” value [3, 19] was 0, the “Plant response rating, Buckwheat, Wild” value [3, 20] was 0 and the “Plant response rating, Buckwheat, Wild” value [3, 21] was 100. The “Chamomile plant response rating” value [4, 15] was 85, the “Plant response rating, Chamomile” value [4, 16] was 100 and the “Plant response rating, Chamomile” value [4, 17] was 100. The “Plant response rating (scale of 0 to 100), Chamomile” value ([4]; Preemergence, 31 g ai/ha) was 90, the “Plant response rating, Chamomile” value [4, 18] was 100 and the “Plant response rating, Chamomile” value [4, 19] was 100. The “Plant response rating, Chamomile” value [4, 20] was 100, the “Plant response rating, Chamomile” value [4, 21] was 90 and the “Deadnettle plant response rating” value [5, 15] was 15. For the same compound, the “Plant response rating, Deadnettle” value [5, 16] was 35, the “Plant response rating, Deadnettle” value [5, 17] was 40 and the “Plant response rating (scale of 0 to 100), Deadnettle” value ([5]; Preemergence, 31 g ai/ha) was 15. For the same compound, the “Plant response rating, Deadnettle” value [5, 18] was 40, the “Plant response rating, Deadnettle” value [5, 19] was 55 and the “Plant response rating, Deadnettle” value [5, 20] was 55. The “Plant response rating, Deadnettle” value [5, 21] was 15, the “Foxtail, Green plant response rating” value [6, 15] was 75 and the “Plant response rating, Foxtail, Green” value [6, 16] was 90. For the same compound, the “Plant response rating, Foxtail, Green” value [6, 17] was 98, the “Plant response rating (scale of 0 to 100), Foxtail, Green” value ([6]; Preemergence, 31 g ai/ha) was 15 and the “Plant response rating, Foxtail, Green” value [6, 18] was 35. For the same compound, the “Plant response rating, Foxtail, Green” value [6, 19] was 65, the “Plant response rating, Foxtail, Green” value [6, 20] was 70 and the “Plant response rating, Foxtail, Green” value [6, 21] was 80. For the same compound, the “Galium plant response rating” value [7, 15] was 85, the “Plant response rating, Galium” value [7, 16] was 100 and the “Plant response rating, Galium” value [7, 17] was 100. The “Plant response rating (scale of 0 to 100), Galium” value ([7]; Preemergence, 31 g ai/ha) was 0, the “Plant response rating, Galium” value [7, 18] was 20 and the “Plant response rating, Galium” value [7, 19] was 65. The “Plant response rating, Galium” value [7, 20] was 75, the “Plant response rating, Galium” value [7, 21] was 100 and the “Kochia plant response rating” value [8, 15] was 85. For the same compound, the “Plant response rating, Kochia” value [8, 16] was 100, the “Plant response rating, Kochia” value [8, 17] was 100 and the “Plant response rating (scale of 0 to 100), Kochia” value ([8]; Preemergence, 31 g ai/ha) was 0. For the same compound, the “Plant response rating, Kochia” value [8, 18] was 15, the “Plant response rating, Kochia” value [8, 19] was 75 and the “Plant response rating, Kochia” value [8, 20] was 85. For the same compound, the “Plant response rating, Kochia” value [8, 21] was 95, the “Mustard, Wild plant response rating” value [9, 15] was 10 and the “Plant response rating, Mustard, Wild” value [9, 16] was 55. For the same compound, the “Plant response rating, Mustard, Wild” value [9, 17] was 70, the “Plant response rating (scale of 0 to 100), Mustard, Wild” value ([9]; Preemergence, 31 g ai/ha) was 0 and the “Plant response rating, Mustard, Wild” value [9, 18] was 0. The “Plant response rating, Mustard, Wild” value [9, 19] was 0, the “Plant response rating, Mustard, Wild” value [9, 20] was 0 and the “Plant response rating, Mustard, Wild” value [9, 21] was 40. The “Oilseed Rape plant response rating” value [10, 15] was 0, the “Plant response rating, Oilseed Rape” value [10, 16] was 65 and the “Plant response rating, Oilseed Rape” value [10, 17] was 75. For the same compound, the “Plant response rating (scale of 0 to 100), Oilseed Rape” value ([10]; Preemergence, 31 g ai/ha) was 35, the “Plant response rating, Oilseed Rape” value [10, 18] was 35 and the “Plant response rating, Oilseed Rape” value [10, 19] was 35. For the same compound, the “Plant response rating, Oilseed Rape” value [10, 20] was 35, the “Plant response rating, Oilseed Rape” value [10, 21] was 20 and the “Pigweed plant response rating” value [11, 15] was 95. For the same compound, the “Plant response rating, Pigweed” value [11, 16] was 100, the “Plant response rating, Pigweed” value [11, 17] was 100 and the “Plant response rating (scale of 0 to 100), Pigweed” value ([11]; Preemergence, 31 g ai/ha) was 30. For the same compound, the “Plant response rating, Pigweed” value [11, 18] was 100, the “Plant response rating, Pigweed” value [11, 19] was 100 and the “Plant response rating, Pigweed” value [11, 20] was 100. The “Plant response rating, Pigweed” value [11, 21] was 100, the “Ryegrass, Italian plant response rating” value [12, 15] was 85 and the “Plant response rating, Ryegrass, Italian” value [12, 16] was 95. The “Plant response rating, Ryegrass, Italian” value [12, 17] was 98, the “Plant response rating (scale of 0 to 100), Ryegrass, Italian” value ([12]; Preemergence, 31 g ai/ha) was 80 and the “Plant response rating, Ryegrass, Italian” value [12, 18] was 85. For the same compound, the “Plant response rating, Ryegrass, Italian” value [12, 19] was 90, the “Plant response rating, Ryegrass, Italian” value [12, 20] was 95 and the “Plant response rating, Ryegrass, Italian” value [12, 21] was 95. The “Speedwell plant response rating” value [13, 15] was 55, the “Plant response rating, Speedwell” value [13, 16] was 70 and the “Plant response rating, Speedwell” value [13, 17] was 75. For the same compound, the “Plant response rating (scale of 0 to 100), Speedwell” value ([13]; Preemergence, 31 g ai/ha) was 75, the “Plant response rating, Speedwell” value [13, 18] was 100 and the “Plant response rating, Speedwell” value [13, 19] was 100. The “Plant response rating, Speedwell” value [13, 20] was 100, the “Plant response rating, Speedwell” value [13, 21] was 70 and the “Windgrass plant response rating” value [14, 15] was 75. The “Plant response rating, Windgrass” value [14, 16] was 85, the “Plant response rating, Windgrass” value [14, 17] was 100 and the “Plant response rating (scale of 0 to 100), Windgrass” value ([14]; Preemergence, 31 g ai/ha) was 70. The “Plant response rating, Windgrass” value [14, 18] was 75, the “Plant response rating, Windgrass” value [14, 19] was 85 and the “Plant response rating, Windgrass” value [14, 20] was 85. The “Plant response rating, Windgrass” value [14, 21] was 80.

Source: patent US10597388B2, “Pyridazinone herbicides” (FMC CORPORATION, priority 2014, dated 2020)
